One compound from patent US20130165471A1, “2-SUBSTITUTED-THIENOQUINOLONES AND RELATED COMPOUNDS AS ANTI-INFECTIVE AGENTS” (Achillion Pharmaceuticals Inc., priority 2011, published 2013) can be followed below.

Converted amounts (≈) assume the structure as drawn.

For data set [1], the system named is S. aureus ATCC 29213. Briefly: Minimum inhibitory concentration (MIC) assay, MSSA. The note with it: Staphylococcus aureus, broth microdilution. In kind it is cell-based. How it is done: (§1) The preparation of compounds listed in Table I can be carried out under conditions analogous to those described in the examples above. Those of skill in the art will recognize routine changes in reaction conditions and starting materials needed to produce the listed compounds. For example, compound 5 in Table I, is prepared by the method shown above, except tert-butyl (1-(pyrrolidin-3-yl)ethyl)carbamate, prepared by the method shown in Schoeder, et al., J. Heterocyclic Chem., 29: 1481-1498 (1992), is used as the amine starting material. Compound activity was evaluated in a standard minimal inhibitory concentration assay such as the assay provided in Example 4. Compound cytotoxicity is determined using a standard assay of cytotoxicity such as the assay provided in Example 5. Compounds 10, 14, and 20 of Table I are provided as comparative examples.
(§2) The antimicrobial activity of the compounds of the invention may be evaluated by a number of methods, including the following visual minimum inhibitory concentration (MIC) assay. This assay determines the minimum concentration of compound required to inhibit growth of a bacterial strain.
(§3) Whole-cell antibacterial activity is determined by broth microdilution using conditions recommended by the NCCLS (see National Committee for Clinical Laboratory Standards. 2001. Performance standards for antimicrobial susceptibility testing: 11th informational supplement. Vol. 21, no. 1, M100-S11. National Committee for Clinical Laboratory Standards, Wayne, Pa.). Test compounds are dissolved in DMSO and diluted 1:50 in Mueller-Hinton II broth (Becton-Dickinson) to produce a 256 μg/ml stock solution. In a 96-well microtiter plate, the compound solution is serially two-fold diluted in Mueller-Hinton II broth. After the compounds are diluted, a 50 μl aliquot of the test organism (˜1×10^6 cfu/mL) is added to each well of the microtiter plate. The final test concentrations range from 0.125-128 μg/mL. Inoculated plates are incubated in ambient air at 37° C. for 18 to 24 hours. The organisms selected for testing included laboratory strains S. aureus ATCC 29213 and E. coli ATCC 25922 (strains purchased from American Type Culture Collection, Manassas, Va.) m, S. aureus FQR700699, and Paeruginosa 27853. The minimum inhibitory concentration (MIC) is determined as the lowest concentration of compound that inhibited visible growth of the test organism.

Data set [2] deals with fluoroquinolone-resistant S. aureus ATCC 700699. Briefly: Minimum inhibitory concentration (MIC) assay, MRSA. In kind it is cell-based. The conditions noted are these: Staphylococcus aureus, broth microdilution. As to the method: as §1, §2, §3
Data set [3] has as its system Hep2. Briefly: Cytotoxicity, cell viability staining with Alamar Blue. It is filed as cell-based, human. On the set-up: unit not given here. The conditions noted are these: Hep2 cells. How it is done:
as §1
To determine whether the microcidal effect observed against S. aureus and E. coli is specific to bacterial cells, compounds are screened for cell viability effects on several human cell types.
Optimal cell density is first determined by plating cells in a 96-well plate standard sterile tissue culture plates in 100 μl media, 10% FBS at six cell densities from 500 cells/well to 15,000 cells/well. A cell free well containing only media is used as a control. Cells are incubated at 37° C. in a 5% CO2 incubator for 24 hours. 10% culture volume (10 ul) of Alamar Blue (Biosource, DAL1100, 100 mL) is then added. Cells are incubated at 37° C. in a 5% CO2 incubator and read in a Victor V plate reader, 544 nm excitation, 590 nm emission, at 3, 4, and 24 hours after the addition of Alamar Blue. The cell number vs. change in fluorescence is plotted to determine linearity of signal vs. cell number. The optimal density varies between 500-15,000 cells/well depending on the specific cell type. The optimal density is selected based on the highest number of cells that is still in the linear response range.
Cells are plated at optimal cell density in a standard sterile tissue culture 96 well plate, and incubated at 37° C., O/N in a 5% CO2 incubator. 12 to 48 hours post-plating media is removed. The cells are washed 1 or 2 times with 1×PBS and replaced with fresh media containing the test compound in 1% DMSO. 24 to 72 hours after addition of compound, the media is removed, and the cells washed 1 to 2 times with 1×PBS. Fresh media containing 1/10 volume of Alamar Blue is then added. Plates are incubated 4 hours at 37° C. in a 5% CO2 incubator and read in a Victor V plate reader, 544 nm excitation, 590 nm emission.
Compounds are diluted to 20 micromolar in 1% DMSO and media and screened in duplicate to obtain single concentration cytotoxicity data. Eight concentration points from 0.78 micromolar to 100 micromolar, run in duplicate, are used to determine cytotoxicity CC50 values. Cells with 1% DMSO and media are used as a negative control, compounds having a known CC50 against a particular cell type are used as positive controls.
The change in fluorescence vs. concentration of test compound is plotted to determine the cytotoxicity of the compound.

Turning to `COc1c(N2CCC(CN)CC2)c(F)cc2c(=O)c3c(O)c(C(C)=O)sc3n(C3CC3)c12` [Compound 9, 2-acetyl-7-(4-(aminomethyl)piperidin-1-yl)-9-cyclopropyl-6-fluoro-3-hydroxy-8-methoxythieno[2,3-b] quinolin-4(9H)-one], the results for the MIC in data set [1] and in data set [2] were 0.25 µg/mL (≈ 0.544 µM) and 1 µg/mL (≈ 2.18 µM), respectively. Besides, the “Cytotoxicity Hep2” value in data set [3] is given as 42.
